This note sets out measurements from US9656963B2 (BRISTOL-MYERS SQUIBB COMPANY, priority 2012, dated 2017).

T1 sequence (O14842 whole entry): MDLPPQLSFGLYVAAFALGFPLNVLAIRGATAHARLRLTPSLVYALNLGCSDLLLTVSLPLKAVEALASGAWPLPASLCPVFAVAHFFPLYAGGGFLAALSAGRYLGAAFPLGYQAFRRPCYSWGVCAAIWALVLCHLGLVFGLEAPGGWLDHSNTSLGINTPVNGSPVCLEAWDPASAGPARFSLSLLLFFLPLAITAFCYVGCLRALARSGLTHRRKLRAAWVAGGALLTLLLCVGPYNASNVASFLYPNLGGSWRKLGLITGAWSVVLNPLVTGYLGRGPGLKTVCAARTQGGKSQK

The assay has as its target T1, hGPR40 (Homo sapiens, UniProt O14842).
T1 construct: 3x FLAG; expressed in transfected cells
The assay can be described thus: FDSS-Based Intracellular Calcium Assay. Format: cell-based. The note with it: cells expressing GPR40, intracellular Ca2+ response. On the procedure:
FDSS-Based Intracellular Calcium Assay
Cell lines expressing GPR40 are generated using the pDEST 3× flag gene expression system and are cultured in culture medium comprising the following components: F12 (Gibco #11765), 10% lipid deprived fetal bovine serum, 250 μg/ml zeocin and 500 μg/ml G418. To conduct the fluorescent imaging plate reader (FLIPR)-based calcium flux assay to measure intracellular Ca^2+ response, cells expressing GPR40 are plated on 384 well plates (BD Biocoat #356697) at a density of 20,000 cells/20 μL medium per well in phenol red and serum-free DMEM (Gibco #21063-029) and incubated overnight. […] Compounds are dissolved in DMSO and diluted to desired concentrations with assay buffer and added to the cells as 3x solution (20 μL per well). Run fluorescence/luminescence reader FDSS (Hamamatsu) to read intracellular Ca^2+ response.
On the technique in general: Calcium flux is commonly read through the fluorescence of an indicator in the cells.
As a reminder, the EC50 is the concentration needed to bring the measured effect to its halfway point. As for `COc1ccc(F)c(-c2ccc(Oc3ccc(N4N=C(C(F)(F)F)CC4CC(=O)O)cc3)c(Cl)c2)c1` (single isomer, unassigned) [Example 42, Isomer 1, 2-(1-(4-(3-chloro-2′-fluoro-5′-methoxybiphenyl-4-yloxy)phenyl)-3-(trifluoromethyl)-4,5-dihydro-1H-pyrazol-5-yl)acetic acid], the EC50 worked out at 620 nM. For `COc1ccc(F)c(-c2ccc(Oc3ccc(N4N=C(C(F)(F)F)CC4CC(=O)O)cc3)c(Cl)c2)c1` (single isomer, unassigned) [Example 42, Isomer 2, 2-(1-(4-(3-chloro-2′-fluoro-5′-methoxybiphenyl-4-yloxy)phenyl)-3-(trifluoromethyl)-4,5-dihydro-1H-pyrazol-5-yl)acetic acid] the value was 290 nM; for `COc1ccc(F)c(-c2ccc(Cc3ccc(N4N=C(C(F)(F)F)C(C5CC5)C4CC(=O)O)cc3)c(C)c2)c1` (single isomer, unassigned) [Example 43, Isomer 1, 2-(4-cyclopropyl-1-(4-((2′-fluoro-5′-methoxy-3-methylbiphenyl-4-yl)methyl)phenyl)-3-(trifluoromethyl)-4,5-dihydro-1H-pyrazol-5-yl)acetic acid], 3280 nM. Turning to `COc1ccc(F)c(-c2ccc(Cc3ccc(N4N=C(C(F)(F)F)C(C5CC5)C4CC(=O)O)cc3)c(C)c2)c1` (single isomer, unassigned) [Example 43, Isomer 2, 2-(4-cyclopropyl-1-(4-((2′-fluoro-5′-methoxy-3-methylbiphenyl-4-yl)methyl)phenyl)-3-(trifluoromethyl)-4,5-dihydro-1H-pyrazol-5-yl)acetic acid], the concentration giving a half-maximal response (EC50) amounted to 90 nM. `CCC1C(C(F)(F)F)=NN(c2ccc(Cc3ccc(-c4cc(OC)ccc4F)cc3C)cc2)C1CC(=O)O` (single isomer, unassigned) [Example 44, Isomer 1, 2-(4-ethyl-1-(4-((2′-fluoro-5′-methoxy-3-methylbiphenyl-4-yl)methyl)phenyl)-3-(trifluoromethyl)-4,5-dihydro-1H-pyrazol-5-yl)acetic acid]: the EC50 came to 1310 nM. The figure for `CCC1C(C(F)(F)F)=NN(c2ccc(Cc3ccc(-c4cc(OC)ccc4F)cc3C)cc2)C1CC(=O)O` (single isomer, unassigned) [Example 44, Isomer 2, 2-(4-ethyl-1-(4-((2′-fluoro-5′-methoxy-3-methylbiphenyl-4-yl)methyl)phenyl)-3-(trifluoromethyl)-4,5-dihydro-1H-pyrazol-5-yl)acetic acid] is 20 nM; for `COc1ccc(F)c(-c2ccc(Cc3ccc(N4N=C(C(F)(F)F)C(C(C)C)C4CC(=O)O)cc3)c(C)c2)c1` (single isomer, unassigned) [Example 45, Isomer 1, 2-(1-(4-((2′-fluoro-5′-methoxy-3-methylbiphenyl-4-yl)methyl)phenyl)-4-isopropyl-3-(trifluoromethyl)-4,5-dihydro-1H-pyrazol-5-yl)acetic acid] it is 3820 nM; for `COc1ccc(F)c(-c2ccc(Cc3ccc(N4N=C(C(F)(F)F)C(C(C)C)C4CC(=O)O)cc3)c(C)c2)c1` (single isomer, unassigned) [Example 45, Isomer 2, 2-(1-(4-((2′-fluoro-5′-methoxy-3-methylbiphenyl-4-yl)methyl)phenyl)-4-isopropyl-3-(trifluoromethyl)-4,5-dihydro-1H-pyrazol-5-yl)acetic acid] it is 70 nM. On to `COc1ccc(F)c(-c2ccc(Cc3ccc(N4N=C(C(F)(F)F)C(CC5CC5)C4CC(=O)O)cc3)c(C)c2)c1` (single isomer, unassigned) [Example 46, Isomer 1, 2-(4-(cyclopropylmethyl)-1-(4-((2′-fluoro-5′-methoxy-3-methylbiphenyl-4-yl)methyl)phenyl)-3-(trifluoromethyl)-4,5-dihydro-1H-pyrazol-5-yl)acetic acid], for which the 50% effective concentration (EC50) is 50 nM. With `COc1ccc(F)c(-c2ccc(Cc3ccc(N4N=C(C(F)(F)F)C(CC5CC5)C4CC(=O)O)cc3)c(C)c2)c1` (single isomer, unassigned) [Example 46, Isomer 2, 2-(4-(cyclopropylmethyl)-1-(4-((2′-fluoro-5′-methoxy-3-methylbiphenyl-4-yl)methyl)phenyl)-3-(trifluoromethyl)-4,5-dihydro-1H-pyrazol-5-yl)acetic acid], the EC50 stood at 1910 nM. For `COc1ccc(F)c(-c2ccc(Cc3ccc(N4N=C(C(F)(F)F)C(c5ccccc5)C4CC(=O)O)cc3)c(C)c2)c1` (single isomer, unassigned) [Example 47, Isomer 1, 2-(1-(4-((2′-fluoro-5′-methoxy-3-methylbiphenyl-4-yl)methyl)phenyl)-4-phenyl-3-(trifluoromethyl)-4,5-dihydro-1H-pyrazol-5-yl)acetic acid] the value was 890 nM; for `COc1ccc(F)c(-c2ccc(Cc3ccc(N4N=C(C(F)(F)F)C(c5ccccc5)C4CC(=O)O)cc3)c(C)c2)c1` (single isomer, unassigned) [Example 47, Isomer 2, 2-(1-(4-((2′-fluoro-5′-methoxy-3-methylbiphenyl-4-yl)methyl)phenyl)-4-phenyl-3-(trifluoromethyl)-4,5-dihydro-1H-pyrazol-5-yl)acetic acid], 5930 nM. The figure for `COCC1C(C(F)(F)F)=NN(c2ccc(Cc3ccc(-c4cc(OC)ccc4F)cc3C)cc2)C1CC(=O)O` (single isomer, unassigned) [Example 48, Isomer 1, 2-(1-(4-((2′-fluoro-5′-methoxy-3-methylbiphenyl-4-yl)methyl)phenyl)-4-(methoxymethyl)-3-(trifluoromethyl)-4,5-dihydro-1H-pyrazol-5-yl)acetic acid] is 170 nM; for `COCC1C(C(F)(F)F)=NN(c2ccc(Cc3ccc(-c4cc(OC)ccc4F)cc3C)cc2)C1CC(=O)O` (single isomer, unassigned) [Example 48, Isomer 2, 2-(1-(4-((2′-fluoro-5′-methoxy-3-methylbiphenyl-4-yl)methyl)phenyl)-4-(methoxymethyl)-3-(trifluoromethyl)-4,5-dihydro-1H-pyrazol-5-yl)acetic acid] it is 920 nM; for `COc1ccc(OC)c(-c2ccc(Cc3ccc(N4N=C(C#N)CC4CC(=O)O)cc3)c(C)c2)c1` (single isomer, unassigned) [Example 49, Isomer 1, 2-(3-cyano-1-(4-((2′,5′-dimethoxy-3-methylbiphenyl-4-yl)methyl)phenyl)-4,5-dihydro-1H-pyrazol-5-yl)acetic acid] it is 225 nM. For `COc1ccc(OC)c(-c2ccc(Cc3ccc(N4N=C(C#N)CC4CC(=O)O)cc3)c(C)c2)c1` (single isomer, unassigned) [Example 49, Isomer 2, 2-(3-cyano-1-(4-((2′,5′-dimethoxy-3-methylbiphenyl-4-yl)methyl)phenyl)-4,5-dihydro-1H-pyrazol-5-yl)acetic acid] the value was 3110 nM; for `COc1ccc(F)c(-c2ccc(Cc3ccc(N4N=C(C(F)(F)F)C(C)(C)C4CC(=O)O)cc3)c(C)c2)c1` (single isomer, unassigned) [Example 50, Isomer 1, 2-(1-(4-((2′-fluoro-5′-methoxy-3-methylbiphenyl-4-yl)methyl)phenyl)-4,4-dimethyl-3-(trifluoromethyl)-4,5-dihydro-1H-pyrazol-5-yl)acetic acid], 220 nM.
